Measured values: patent publication US12534429B2, “Heterodimers of glutamic acid” (Molecular Insight Pharmaceuticals, Inc., priority 2006, dated 2026)
pIC50, pKd: −log10 of the molar value. Read-outs that look alike come from different tables or passages of the source.

Assays:
PSMA on LNCaP cells = target: T1, PSMA on LNCaP cells (Homo sapiens, UniProt Q04609); assay: In vitro cell binding: competition with I-131 DCIT for binding to PSMA on LNCaP cells; conditions: for IC50: LNCaP cells, 3 nM I-131 DCIT, 1 hour, read-out: IC50 (nM), in vitro cell binding data; for pIC50: LnCap cells, dose curves
T1 construct: LNCaP human prostate cancer cells were obtained from American Type Culture Collection; host or cells: LNCaP human prostate cancer cells
T1 sequence (Q04609 whole entry): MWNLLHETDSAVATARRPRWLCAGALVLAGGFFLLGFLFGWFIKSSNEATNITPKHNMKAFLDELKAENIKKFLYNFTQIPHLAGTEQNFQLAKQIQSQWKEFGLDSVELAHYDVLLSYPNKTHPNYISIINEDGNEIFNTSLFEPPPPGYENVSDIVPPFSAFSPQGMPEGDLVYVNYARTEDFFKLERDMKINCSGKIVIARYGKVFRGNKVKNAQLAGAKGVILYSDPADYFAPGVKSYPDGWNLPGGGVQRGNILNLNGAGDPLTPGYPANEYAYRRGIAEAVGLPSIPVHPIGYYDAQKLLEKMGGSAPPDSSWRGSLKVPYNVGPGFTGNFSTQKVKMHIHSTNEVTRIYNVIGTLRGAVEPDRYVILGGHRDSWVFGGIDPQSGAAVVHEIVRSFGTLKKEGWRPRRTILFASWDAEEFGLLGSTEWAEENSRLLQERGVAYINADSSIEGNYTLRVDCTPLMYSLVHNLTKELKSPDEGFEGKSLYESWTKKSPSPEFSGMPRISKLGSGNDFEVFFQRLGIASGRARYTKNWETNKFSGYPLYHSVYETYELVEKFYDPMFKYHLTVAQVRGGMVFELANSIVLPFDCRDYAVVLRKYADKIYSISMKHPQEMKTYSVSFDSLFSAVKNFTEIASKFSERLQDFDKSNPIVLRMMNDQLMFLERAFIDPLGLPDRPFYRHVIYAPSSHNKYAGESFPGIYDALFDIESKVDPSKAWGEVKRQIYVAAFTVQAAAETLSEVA
Experimental: In vitro cold screening assays verses I-131 DCIT. LNCaP and PC3 human prostate cancer cells were obtained from American Type Culture Collection, Rockville, MD LNCaP cells were maintained in RPMI-1640 medium supplemented with 10% fetal bovine serum (FBS). PC3 cells were grown in F12K medium supplemented with 10% FBS. Binding of the radiolabeled compound and competition with cold derivatives to LNCaP and PC-3 cells was performed according to the methods of Tang et al. (Tang, H.; Brown, M.; Ye, Y.; Huang, G.; Zhang, Y.; Wang, Y.; Zhai, H.; Chen, X.; Shen, T. Y.; Tenniswood, M., Prostate targeting ligands based on N-acetylated alpha-linked acidic dipeptidase, Biochem. Biophys. Res. Commun. 2003, 307, 8-14) with appropriate modifications. Cells were plated in 12-well plates at approximately 4×10^5 cells/well and incubated for 48 hours in a humidified incubator at 37° C./5% carbon dioxide prior to addition of compound. Each unique SAAC-urea-Glu conjugate was prepared and diluted in serum-free cell culture medium containing 0.5% bovine serum albumin (BSA) in combination with 3 nM I-131 DCIT (known inhibitor). Total binding was determined by incubating I-131 DCIT without test compound. Plates were incubated at room temperature for 1 hour. Cells were removed from the plates by gently pipeting and transferred to eppendorff tubes. Samples were microcentrifuged for 15 seconds at 10K×g. The medium was aspirated and the pellet was washed twice by dispersal in fresh assay medium followed by microcentrifugation. Cell binding of I-131 DCIT was determined by counting the cell pellet in an automated gamma counter. […] The control compounds are depicted below.
The ability of non-radioactive analogs to compete with ^131I-DCIT for binding to PSMA was tested in the PSMA positive human prostate cancer cell line, LNCaP cells. LNCaP cells (300,000 cells/well) were incubated for 1 hour with 3 nM [^131I]-DCIT in the presence of 1-10,000 nM MIP-1072 in RPMI-1640 medium supplemented with 0.5% bovine serum albumin, then washed and counted in a gamma counter. All documents cited in this specification including patent applications are incorporated by reference in their entirety.

PSMA (LnCap cells) = PSMA (LnCap cells) (Homo sapiens, UniProt Q04609); assay: Scatchard analysis in PSMA cellular binding assay (nonradiolabeled DCIT with I-131 DCIT)
Sequence of PSMA (LnCap cells) (Q04609 whole entry): as above
Experimental: FIG. 6 is Scatchard Analysis in PSMA Cellular Binding Assay with cold 2-{3-[1-Carboxy-2-(4-hydroxy-phenyl)-ethyl]-ureido}-pentanedioic acid (DCT).
(§1) (ii) In vitro dose screening. […] Binding constants were determined by incubating LnCap cells with various amounts of nonradiolabeled DCIT in the presence of a constant amount of I-131 DCIT and dividing by the specific activity of each solution to determine the number of fmoles compound bound (FIG. 6).

LnCap cells = assay: Direct binding of radiolabeled DCIT to PSMA-positive LnCap cells; parameters: species or system human; conditions: counts displaceable by nonradiolabeled compound or PMPA
Experimental: (§2) The histograms show the mean f SEM, each experiment was performed in duplicate.
(§3) In vitro cold screening assays verses I-131 DCIT. LNCaP and PC3 human prostate cancer cells were obtained from American Type Culture Collection, Rockville, MD LNCaP cells were maintained in RPMI-1640 medium supplemented with 10% fetal bovine serum (FBS). PC3 cells were grown in F12K medium supplemented with 10% FBS. Binding of the radiolabeled compound and competition with cold derivatives to LNCaP and PC-3 cells was performed according to the methods of Tang et al. (Tang, H.; Brown, M.; Ye, Y.; Huang, G.; Zhang, Y.; Wang, Y.; Zhai, H.; Chen, X.; Shen, T. Y.; Tenniswood, M., Prostate targeting ligands based on N-acetylated alpha-linked acidic dipeptidase, Biochem. Biophys. Res. Commun. 2003, 307, 8-14) with appropriate modifications. […] Total binding was determined by incubating I-131 DCIT without test compound. […] Cell binding of I-131 DCIT was determined by counting the cell pellet in an automated gamma counter. […]
as §1

PC3 cells = assay: Direct binding of radiolabeled DCIT to PSMA-negative PC3 cells; parameters: species or system human
Experimental: as §2, §3, §1

[1] = Stability of iodine-131 labeled compounds in solution (HPLC); type: physicochemical
Experimental: FIG. 4A-4D are radio-HPLC chromatograms of I-131 MIP 1072 purified; at 3 days in A) DMSO. B) 3% genstisate-6% Ascorbate/Ascorbic acid, C) PBS, pH=7.2, D) 10% Ethanol in Saline at 37° C.
(§4) The stability of the radiolabeled compound in solution was determined as a function of time. Specifically, after radiolabeling and isolation, the product was stored at room temperature for 48 h after which HPLC analysis was performed to check for degree of label retention, as well as potential product degradation. The reformation of NaI and the presence of the reduced iodates was analyzed.
as §4, with “37° C.” for “room temperature”, “3 days” for “48 h”

[2] = read-out: IC-50 versus I-131 DCIT
[3] = read-out: IC50 values versus I-131 DCIT

## O=C(O)CC[C@H](NC(=O)N[C@@H](CCCCNC(=O)Nc1ccccc1)C(=O)O)C(=O)O (stereo in doubt) [MIP 1111, 2-(3-{1-Carboxy-5-[3-(phenyl)-ureido]-pentyl}-ureido)-pentanedioic acid]
PSMA on LNCaP cells
  IC50: 12 nM

## O=C(O)CC[C@H](NC(=O)NC(CCCCNCc1ccccc1)C(=O)O)C(=O)O (stereo in doubt) [MIP-1106, (S)-2-(3-((R)-5-(benzylamino)-1-carboxypentyl)ureido)pentanedioic acid]
PSMA on LNCaP cells
  IC50: 2960 nM

## O=C(O)CC[C@H](NC(=O)N[C@@H](Cc1ccc(O)c(I)c1)C(=O)O)C(=O)O [DCIT, N—[N—[(S)-1,3-dicarboxypropyl]carbamoyl]-S-3-iodo-L-tyrosine]
PSMA (LnCap cells)
  Bmax: 254 fmol
  pKd: 6.58

## O=C(O)CC[C@H](NC(=O)N[C@@H](Cc1ccc(O)c([123I])c1)C(=O)O)C(=O)O [I-123 DCIT]
LnCap cells
  specific binding to LnCap cells: bound specifically
PC3 cells
  specific binding to PC3 cells: not PC3 cells

## O=C(O)CC[C@H](NC(=O)N[C@@H](CCCCNCc1ccc([131I])cc1)C(=O)O)C(=O)O [I-131 1072]
[1]; 3 days at 37° C. in DMSO, gentisate/ascorbate, PBS pH 7.2, 10% ethanol in saline
  stability by radio-HPLC: remained stable
[1]; out to 3 days at room temperature in DMSO, 10% ethanol/saline, PBS pH 7.2, 6% ascorbate/3% gentisic acid
  labeling stability (degradation): no significant degradation

## O=C(O)CC[C@H](NC(=O)N[C@@H](Cc1ccc(O)c(I)c1)C(=O)O)C(=O)O [I-131 DCIT, N—[N—[(S)-1,3-dicarboxypropyl]carbamoyl]-S-3-iodo-L-tyrosine]
LnCap cells
  specific binding to LnCap cells: bound specifically
[1]; out to 2 days at room temperature
  labeling stability (degradation): no significant degradation
PC3 cells
  specific binding to PC3 cells: not PC3 cells

## O=C(O)CC[C@H](NC(=O)N[C@@H](CCCCN(Cc1ccccn1)Cc1ccccn1)C(=O)O)C(=O)O [MIP 1008, (S, S)-2-{3-[5-(Bis-pyridin-2-ylmethyl-amino)-1-carboxy-pentyl]-ureido}-pentanedioic acid]
PSMA on LNCaP cells; [2]
  pIC50: 7.01
PSMA on LNCaP cells; screen at 2 uM test compound
  competition with I-131 DCIT for binding to LnCap cells: competed

## O=C(O)CC[C@H](NC(=O)N(Cc1ccccn1)Cc1ccccn1)C(=O)O [MIP 1025, (S)-2-(3,3-Bis-pyridin-2-ylmethyl-ureido)-pentanedioic acid]
PSMA on LNCaP cells; screen at 2 uM test compound
  competition with I-131 DCIT for binding to LnCap cells: did not compete

## O=C(O)CC[C@H](NC(=O)N[C@@H](CCN(Cc1ccccn1)Cc1ccccn1)C(=O)O)C(=O)O [MIP 1028, (S, S)-2-{3-[3-(Bis-pyridin-2-ylmethyl-amino)-1-carboxy-propyl]-ureido}-pentanedioic acid]
PSMA on LNCaP cells; screen at 2 uM test compound
  competition with I-131 DCIT for binding to LnCap cells: did not compete

## NCCCC[C@H](NC(=O)N[C@@H](CCC(=O)O)C(=O)O)C(=O)O [MIP 1033, (S, S)-2-[3-(5-Amino-1-carboxy-pentyl)-ureido]-pentanedioic acid]
PSMA on LNCaP cells
  IC50: 498 nM
PSMA on LNCaP cells; [2]
  pIC50: 6.30
PSMA on LNCaP cells; screen at 2 uM test compound
  competition with I-131 DCIT for binding to LnCap cells: competed

## O=C(O)CC[C@H](NC(=O)N[C@@H](CCCCNC(=O)Nc1ccc(I)cc1)C(=O)O)C(=O)O [MIP 1095, 2-(3-{1-Carboxy-5-[3-(4-iodo-phenyl)-ureido]-pentyl}-ureido)-pentanedioic acid]
PSMA on LNCaP cells
  IC50: 10 nM
PSMA on LNCaP cells; [3]
  pIC50: > 7.30

## O=C(O)CC[C@H](NC(=O)N[C@@H](CCCCNS(=O)(=O)c1ccc(I)cc1)C(=O)O)C(=O)O [MIP 1097, 2-{3-[1-carboxy-5-(4-iodo-benzenesulfonylamino)-pentyl]-ureido}-pentanedioic acid]
PSMA on LNCaP cells; [3]
  pIC50: > 7.30

## O=C(O)CC[C@H](NC(=O)N[C@@H](CCCCNC(=O)Nc1ccc(Cl)cc1)C(=O)O)C(=O)O [MIP 1110, 2-(3-{1-Carboxy-5-[3-(4-chloro-phenyl)-ureido]-pentyl}-ureido)-pentanedioic acid]
PSMA on LNCaP cells
  IC50: 4 nM

## O=C(O)CC[C@H](NC(=O)N[C@@H](CCCCNCc1cccc(Cl)c1)C(=O)O)C(=O)O [MIP 1131, (S, S)-2-{3-[1-Carboxy-5-(3-chloro-benzylamino)-pentyl]-ureido}-pentanedioic]
PSMA on LNCaP cells
  IC50: 277 nM

## O=C(O)CC[C@H](NC(=O)N[C@@H](CCCCNCc1ccc(Cl)cc1)C(=O)O)C(=O)O [MIP 1135, (S, S)-2-{3-[1-Carboxy-5-(4-chloro-benzylamino)-pentyl]-ureido}-pentanedioic]
PSMA on LNCaP cells
  IC50: 2 nM

## O=C(O)CC[C@H](NC(=O)N[C@@H](CCCCNC(=O)NCc1cccc(I)c1)C(=O)O)C(=O)O [MIP-1101, 2-(3-{1-Carboxy-5-[3-(3-iodo-benzyl)-ureido]-pentyl}-ureido)-pentanedioic acid]
PSMA on LNCaP cells
  IC50: 10 nM

## O=C(O)CC[C@H](NC(=O)N[C@@H](CCCCNCc1cccc2ccccc12)C(=O)O)C(=O)O [MIP-1108, (S)-2-(3-((R)-1-carboxy-5-([…]yridine[…]ne-1-ylmethylamino)pentyl)ureido)pentanedioic acid]
PSMA on LNCaP cells
  IC50: 154 nM

## O=C(O)CC[C@H](NC(=O)N[C@@H](CCCCNC(=O)CCCCCCCCCCN(Cc1ccc(I)cc1)Cc1ccc(I)cc1)C(=O)O)C(=O)O [MIP-1130, (19S,23S)-2-(4-iodobenzyl)-1-(4-iodophenyl)-13,21-dioxo-2,14,20,22-tetraazapentacosane-19,23,25-tricarboxylic acid]
PSMA on LNCaP cells
  IC50: 300 nM

## O=C(O)CC[C@H](NC(=O)N[C@@H](CCCCNCc1ccccc1Cl)C(=O)O)C(=O)O [MIP-1137, (S, S)-2-{3-[1-Carboxy-5-(2-chloro-benzylamino)-pentyl]-ureido}-pentanedioic]
PSMA on LNCaP cells
  IC50: 245 nM

## [Re(CO)3(2-{3-[5-(Bis-pyridin-2-ylmethyl-amino)-1-carboxy-pentyl]-ureido}-pentanedioic acid)][Br] [MIP 1029]
PSMA on LNCaP cells
  competition with I-131 DCIT for binding to LnCap cells: did not compete

## [Re(CO)3{(17R,21S)-11,19-dioxo-1-([…]yridine-2-yl)-2-([…]yridine-2-ylmethyl)-5,8-dioxa-2,12,18,20-tetraazatricosane-17,21,23-tricarboxylic acid}][Br] [MIP-1133]
PSMA on LNCaP cells
  IC50: 227 nM

## [Re(CO)3{(19R,23S)-13,21-dioxo-2-([…]yridine-2-ylmethyl)-2,14,20,22-tetraazapentacosane-1,19,23,25-tetracarboxylic acid}] [MIP-1109]
PSMA on LNCaP cells
  IC50: 696 nM

## [Re(CO)3{(35R,39S)-29,37-dioxo-1-([…]yridine-2-yl)-2-([…]yridine-2-ylmethyl)-5,8,11,14,17,20,23,26-octaoxa-2,30,36,38-tetraazahentetracontane-35,39,41-tricarboxylic acid}][Br] [MIP-1132]
PSMA on LNCaP cells
  IC50: 1750 nM
